# From patent US20160220569A1, “CDK4/6 Inhibitor Dosage Formulations For The Protection Of Hematopoietic Stem And Progenitor Cells During Chemotherapy” (G1 Therapeutics, Inc., priority 2015, published 2016)
# Like-named read-outs stand apart in the source and are kept apart here.
# Test: 14-day oral gavage toxicokinetic study in rats
# Format: in vivo
# Settings: rat, plasma, po; for concentration at 0.5 h / concentration at 1 h / concentration at 2 h / concentration at 4 h / concentration at 8 h / concentration at 12 h / concentration at 24 h / concentration at […]: rats; for concentration at 1 h: Day 14, 1 h; for concentration at 24 h: Day 14, 24 h; for half-life: read-out: t½ (converted)
# Experimental: Plasma was obtained from blood samples collected from rats in a composite sampling scheme, with 3 samples collected per sex, per dose, at each target collection time, as illustrated in Table 21 to Table 25. Samples were collected from the vehicle control group on Day 1 and Day 14 at 3 hour after administration. […] Blood samples were collected in tubes containing K3EDTA as an anticoagulant and placed on ice until processed to plasma via centrifugation. Samples were stored frozen at −80° C. until shipment to the bioanalytical laboratory for analysis.
# The following parameters were determined:
# Cmax: Maximum observed plasma concentration (ng/mL).
# A value of 0 ng/mL was assigned to all values below the lower limit of quantitation (BLQ, <10.0 ng/mL).
# AUC(0-inf): Area under the plasma concentration vs. time curve extrapolated from 0 to infinity (ng*h/mL), calculated as AUC(0-t)+AUC(t-inf) where AUC(t-inf) is calculated as last measurable concentration (CLast) divided by ke, where ke is the elimination rate constant determined by linear regression of the last three analytically measured points on the log plasma concentration vs. time curve. The selection criteria of the data points for inclusion in the calculation of ke required that at least three data points representing the terminal phase (after Tmax) were regressed and that R2≧0.850 when rounded.
# CL: Clearance (L/h/kg), calculated as the dose divided by AUC(0-t).
# Vd: Volume of distribution (L/kg), calculated as dose divided by the product of ke and AUC(0-inf).
# Vdss: Steady state volume of distribution (L/kg), calculated as clearance […] mean residence time, where mean residence time is calculated as the area under the first moment curve divided by AUC(0-t).
# t½: Elimination half-life (h), calculated as ln(2)/ke, where ke is the elimination rate constant determined by linear regression. Half-life was defined as not determined if regression criteria (specified in AUC(0-inf) above) were not met.
# Cmax/Dose: Normalized Cmax, calculated as Cmax divided by total dose.
# AUC/Dose: Normalized AUC, calculated as AUC(0-t) divided by total dose.
# ii. Statistical Analysis Mean and standard deviation (SD) were calculated in Watson. Values of BLQ were assigned a value of 0 ng/mL for mean calculations. Concentration values and derived TK parameters were reported to three significant figures.
# [1] = both sexes, 15 mg/kg, Mean Compound 1 Plasma Concentration, oral 15 mg/kg, Overall
# [2] = both sexes, 15 mg/kg, oral 15 mg/kg, Study Day 1, Overall
# [3] = both sexes, 15 mg/kg, oral 15 mg/kg, Study Day 14, Overall
# [4] = both sexes, 30 mg/kg, Mean Compound 1 Plasma Concentration, oral 30 mg/kg, Overall
# [5] = both sexes, 30 mg/kg, oral 30 mg/kg, Study Day 1, Overall
# [6] = both sexes, 30 mg/kg, oral 30 mg/kg, Study Day 14, Overall
# [7] = female, 2 mg/kg, Compound 1 Plasma Concentration, Female, daily oral 2 mg/kg (Group 7), individual animals
smiles,measurement,setting,value
"CN1CCN(c2ccc(Nc3ncc4cc5n(c4n3)C3(CCCCC3)CNC5=O)nc2)CC1 [Compound 1, 2′-((5-(4-methylpiperazin-1-yl)pyridin-2-yl)amino)-7′,8′-dihydro-6′H-spiro[cyclohexane-1,9′-pyrazino[1′,2′:1,5]pyrrolo[2,3-d]pyrimidin]-6′-one]",concentration at 0.5 h,"both sexes, 15 mg/kg, Mean Compound 1 Plasma Concentration, oral 15 mg/kg, Day 14, 0.5 h, Overall",955 ng/mL
same,concentration at 1 h,[1],1150 ng/mL
same,concentration at 2 h,"both sexes, 15 mg/kg, Mean Compound 1 Plasma Concentration, oral 15 mg/kg, Day 14, 2 h, Overall",1410 ng/mL
same,concentration at 4 h,"both sexes, 15 mg/kg, Mean Compound 1 Plasma Concentration, oral 15 mg/kg, Day 14, 4 h, Overall",1330 ng/mL
same,concentration at 8 h,"both sexes, 15 mg/kg, Mean Compound 1 Plasma Concentration, oral 15 mg/kg, Day 14, 8 h, Overall",1070 ng/mL
same,concentration at 12 h,"both sexes, 15 mg/kg, Mean Compound 1 Plasma Concentration, oral 15 mg/kg, Day 14, 12 h, Overall",715 ng/mL
same,concentration at 24 h,[1],95.3 ng/mL
same,AUC(0-inf),[2],19900 ng·h/mL
same,AUC(0-t),[2],19400 ng·h/mL
same,Cmax,[2],1490 ng/mL
same,Tmax,[2],2 h
same,half-life,[2],4.05 h
same,AUC(0-inf),[3],18700 ng·h/mL
same,AUC(0-t),[3],18100 ng·h/mL
same,Cmax,[3],1410 ng/mL
same,Tmax,[3],2 h
same,half-life,[3],4.47 h
same,concentration at 0.5 h,"both sexes, 30 mg/kg, Mean Compound 1 Plasma Concentration, oral 30 mg/kg, Day 1, 0.5 h, Overall",1790 ng/mL
same,concentration at 2 h,"both sexes, 30 mg/kg, Mean Compound 1 Plasma Concentration, oral 30 mg/kg, Day 1, 2 h, Overall",2360 ng/mL
same,concentration at 4 h,"both sexes, 30 mg/kg, Mean Compound 1 Plasma Concentration, oral 30 mg/kg, Day 1, 4 h, Overall",2380 ng/mL
same,concentration at 8 h,"both sexes, 30 mg/kg, Mean Compound 1 Plasma Concentration, oral 30 mg/kg, Day 1, 8 h, Overall",2160 ng/mL
same,concentration at 12 h,"both sexes, 30 mg/kg, Mean Compound 1 Plasma Concentration, oral 30 mg/kg, Day 1, 12 h, Overall",1800 ng/mL
same,concentration at 0.5 h,"both sexes, 30 mg/kg, Mean Compound 1 Plasma Concentration, oral 30 mg/kg, Day 14, 0.5 h, Overall",1270 ng/mL
same,concentration at 1 h,[4],1880 ng/mL
same,concentration at 2 h,"both sexes, 30 mg/kg, Mean Compound 1 Plasma Concentration, oral 30 mg/kg, Day 14, 2 h, Overall",1800 ng/mL
same,concentration at 4 h,"both sexes, 30 mg/kg, Mean Compound 1 Plasma Concentration, oral 30 mg/kg, Day 14, 4 h, Overall",2180 ng/mL
same,concentration at 8 h,"both sexes, 30 mg/kg, Mean Compound 1 Plasma Concentration, oral 30 mg/kg, Day 14, 8 h, Overall",1920 ng/mL
same,concentration at 12 h,"both sexes, 30 mg/kg, Mean Compound 1 Plasma Concentration, oral 30 mg/kg, Day 14, 12 h, Overall",1800 ng/mL
same,concentration at 24 h,[4],263 ng/mL
same,AUC(0-inf),[5],39400 ng·h/mL
same,AUC(0-t),[5],37500 ng·h/mL
same,Cmax,[5],2380 ng/mL
same,Tmax,[5],4 h
same,half-life,[5],4.98 h
same,AUC(0-inf),[6],37000 ng·h/mL
same,AUC(0-t),[6],35000 ng·h/mL
same,Cmax,[6],2180 ng/mL
same,Tmax,[6],4 h
same,half-life,[6],5.23 h
same,concentration at […],"both, 2 mg/kg, Mean Compound 1 Plasma Concentration, oral 2 mg/kg, Day 14, […], Overall",4 ng/mL
same,concentration at […],"both, 5 mg/kg, Mean Compound 1 Plasma Concentration, oral 5 mg/kg, Day 1, […], Overall",20.8 ng/mL
same,concentration at […],"both, 5 mg/kg, Mean Compound 1 Plasma Concentration, oral 5 mg/kg, Day 14, […], Overall",49 ng/mL
same,concentration at […],"both, 15 mg/kg, Mean Compound 1 Plasma Concentration, oral 15 mg/kg, Day 1, […], Overall",72.5 ng/mL
same,concentration at […],"both, 15 mg/kg, Mean Compound 1 Plasma Concentration, oral 15 mg/kg, Day 14, […], Overall",119 ng/mL
same,concentration at […],"both, 30 mg/kg, Mean Compound 1 Plasma Concentration, oral 30 mg/kg, Day 1, […], Overall",150 ng/mL
same,concentration at […],"both, 30 mg/kg, Mean Compound 1 Plasma Concentration, oral 30 mg/kg, Day 14, […], Overall",372 ng/mL
same,concentration at 0.5 h,"female, 2 mg/kg, Compound 1 Plasma Concentration, Female, Day 1, 0.5 h, daily oral 2 mg/kg (Group 7), individual animals",139 ng/mL
same,concentration at 2 h,"female, 2 mg/kg, Compound 1 Plasma Concentration, Female, Day 1, 2 h, daily oral 2 mg/kg (Group 7), individual animals",216 ng/mL
same,concentration at 12 h,"female, 2 mg/kg, Compound 1 Plasma Concentration, Female, Day 1, 12 h, daily oral 2 mg/kg (Group 7), individual animals",91.8 ng/mL
same,concentration at 0.5 h,"female, 2 mg/kg, Compound 1 Plasma Concentration, Female, Day 14, 0.5 h, daily oral 2 mg/kg (Group 7), individual animals",192 ng/mL
same,concentration at 1 h,[7],108 ng/mL
same,concentration at 2 h,"female, 2 mg/kg, Compound 1 Plasma Concentration, Female, Day 14, 2 h, daily oral 2 mg/kg (Group 7), individual animals",224 ng/mL
same,concentration at 4 h,"female, 2 mg/kg, Compound 1 Plasma Concentration, Female, Day 14, 4 h, daily oral 2 mg/kg (Group 7), individual animals",129 ng/mL
same,concentration at 24 h,[7],21.6 ng/mL
same,concentration at […],"female, 2 mg/kg, Compound 1 Plasma Concentration, Female, Day 14, […], daily oral 2 mg/kg (Group 7), individual animals",20 ng/mL
